System: 889142-216-R-J1-PDC complex spheroid viability
Test: Anticancer human tumor 889142-216-R-J1-PDC patient-derived bladder carcinoma cell line growth inhibition [POLQ]
Conditions: for IC50: curve of first compound; for viability, T/C: stronger effect = lower value
Description: Multicellular complex tumor spheroid response to Polymerase (POL) inhibitors (novobiocin, ART-558, RP6685) in combination with a variety of drugs and investigational agents in selected tumor cell lines
The POL inhibitors (novobiocin, ART-558, and RP6685) were evaluated both individually and in combination with standard of care and investigational anticancer small molecules within a complex spheroid model of solid tumors. . Complex spheroids include a stromal component modeled by human endothelial cells (HUVEC) and fibroblasts modeled by human mesenchymal stem cells (MSCs). The concentration ranges selected for each drug and investigational agent were based upon clinically achievable concentrations if the clinical Cmax of the agent was known.
Compounds. The drugs and investigational agents: novobiocin (NSC847541), ART-558 (NSC835418), RP-6685 (NSC848927), peposertib (NSC802822), ceralasertib (NSC780249), elimusertib (NSC800525), camonsertib (NSC841442), AZD-1390 (NSC803789), olaparib (NSC753686), talazoparib (NSC767125), rucaparib (NSC756644), sotorasib (NSC818433), MRTX-1133 (NSC836407), SN-38 (NSC673596), topotecan (NSC609699), epotoside (NSC141540), doxorubicin (NSC123127), gemcitabine (NSC613327), 5-fluorouracil (NSC19893), paclitaxel (NSC125973), vemurafenib (NSC761431), MSA-2 (NSC828583), SN-011 (NSC837082), adavosertib (NSC754352), prexasertib (NSC758257), carboplatin (NSC241240) and oxaliplatin (NSC266046), were obtained from the National Cancer Institute (NCI) Developmental Therapeutics Program Chemical Repository (21). The FDA-approved anticancer drug set is available from the Developmental Therapeutics Program at https://dtp.cancer.gov/organization/dscb/obtaining/. […] The stock solutions were prepared in dimethyl sulfoxide (DMSO, Sigma-Aldrich, St. Louis, MO, cat. D2650), except for the platinum compounds which were prepared in saline (Quality Biological, Gaithersburg, MD, cat. 114-055-101), at 800-fold the tested concentration and stored at -70 degrees C prior to their use. All drugs and investigational agents were tested over a range starting from a high concentration at or near the clinical Cmax and decreasing in half-log increments. If the clinical Cmax for an agent had not been determined, the highest concentration tested was 10 microM, except for SN-38, which was tested at a high concentration of 1 microM.
Cell Culture. All cells were maintained in an incubator at 37 degrees C and 5% CO2 with 95% humidity. The PDC lines were cultured according to standard operating procedures established by the NCI PDMR (https://pdmr.cancer.gov). Table 3 of the manuscript, lists the cell lines along with the number of the three cell types plated to form the mct-spheroids and media for tumor cell growth. After thawing, all PDC lines, except 997537-175-T-J1-PDC and 415267-285-R-J2-PDC, were cultured in Matrigel-coated flasks prepared with a working solution of 1X Ham's F-12 nutrient mix, without supplementation (Thermo Fisher Scientific, cat. 11765054), 100 U/mL penicillin-streptomycin (Thermo Fisher Scientific, cat. 15140122), and 2.5% Matrigel (Corning Inc., Corning, NY, cat. 354248) for the first three passages. The two PDC lines 997537-175-T-J1-PDC and 415267-285-R-J2-PDC were cultured on uncoated flasks. The 857933-349-R-J2-PDC line was cultured in 6C/Colon 1B media containing advanced DMEM/F-12 (Thermo Fisher Scientific, cat. 12634028), 10 mM HEPES (Thermo Fisher Scientific, cat. 15630080), 1X GlutaMAX supplement (Thermo Fisher Scientific, cat. 35050061), 0.1 mg/mL primocin (InvivoGen, San Diego, CA, cat. ant-pm-2), 10% defined fetal bovine serum, heat inactivated (HyClone Laboratories Inc., Logan, UT, cat. SH30070.03HI), 50% L-WRN conditioned media (ATCC, cat. CRL-3276), 1.25 mM N-Acetyl-L-cysteine (Sigma-Aldrich, cat. A9165), 10 mM nicotinamide (Sigma-Aldrich, cat. N0636), 1X B-27 supplement (Thermo Fisher Scientific, cat. 17504044), 1X N-2 supplement (Thermo Fisher Scientific, cat. […]

[1] = second compound 0.0316 µM, first compound 0.0316 µM
[2] = second compound 0.0316 µM, first compound 0.1 µM
[3] = second compound 0.0316 µM, first compound 0.316 µM
[4] = second compound 0.0316 µM, first compound 1 µM
[5] = second compound 0.0316 µM, first compound 3.16 µM
[6] = second compound 0.0316 µM, first compound 10 µM
[7] = second compound 0.1 µM, first compound 0.0316 µM
[8] = second compound 0.1 µM, first compound 0.1 µM
[9] = second compound 0.1 µM, first compound 0.316 µM
[10] = second compound 0.1 µM, first compound 1 µM
[11] = second compound 0.1 µM, first compound 3.16 µM
[12] = second compound 0.1 µM, first compound 10 µM
[13] = second compound 0.316 µM, first compound 0.0316 µM
[14] = second compound 0.316 µM, first compound 0.1 µM
[15] = second compound 0.316 µM, first compound 0.316 µM
[16] = second compound 0.316 µM, first compound 1 µM
[17] = second compound 0.316 µM, first compound 3.16 µM
[18] = second compound 0.316 µM, first compound 10 µM
[19] = second compound 1 µM, first compound 0.0316 µM
[20] = second compound 1 µM, first compound 0.1 µM
[21] = second compound 1 µM, first compound 0.316 µM
[22] = second compound 1 µM, first compound 1 µM
[23] = second compound 1 µM, first compound 3.16 µM
[24] = second compound 1 µM, first compound 10 µM
[25] = second compound 3.16 µM, first compound 0.0316 µM
[26] = second compound 3.16 µM, first compound 0.1 µM
[27] = second compound 3.16 µM, first compound 0.316 µM
[28] = second compound 3.16 µM, first compound 1 µM
[29] = second compound 3.16 µM, first compound 3.16 µM
[30] = second compound 3.16 µM, first compound 10 µM
[31] = second compound 10 µM, first compound 0.0316 µM
[32] = second compound 10 µM, first compound 0.1 µM
[33] = second compound 10 µM, first compound 0.316 µM
[34] = second compound 10 µM, first compound 1 µM
[35] = second compound 10 µM, first compound 3.16 µM
[36] = second compound 10 µM, first compound 10 µM
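Also: spheroids exposed to compounds for seven days.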
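For viability, T/C in this document: 100% = DMSO vehicle control viability.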

With `CNCc1ccc(-c2[nH]c3cc(F)cc4c3c2CCNC4=O)cc1` + Cc1cccc(N(C)C(=O)C2C(O)CCN2c2nc(C)cc(C(F)(F)F)c2C#N)c1 the IC50 (second compound 0.0316 µM) was > 10 µM, the IC50 (second compound 0.1 µM) was > 10 µM and the IC50 (second compound 0.316 µM) was > 10 µM. For the same compound, the IC50 (second compound 1 µM) was > 10 µM, the IC50 (second compound 3.16 µM) was > 10 µM and the IC50 (second compound 10 µM) was > 10 µM. It also gave a viability, T/C [1] of 110%, a viability, T/C [2] of 106% and a viability, T/C [3] of 83.5%. The viability, T/C [4] was 92.7%, the viability, T/C [5] was 101% and the viability, T/C [6] was 58.3%. The viability, T/C [7] was 91.9%, the viability, T/C [8] was 87% and the viability, T/C [9] was 95.9%. The viability, T/C [10] was 91.7%, the viability, T/C [11] was 85.4% and the viability, T/C [12] was 78.5%. For the same compound, the viability, T/C [13] was 92.8%, the viability, T/C [14] was 89.4% and the viability, T/C [15] was 109%. The viability, T/C [16] was 110%, the viability, T/C [17] was 126% and the viability, T/C [18] was 79.9%. For the same compound, the viability, T/C [19] was 82.3%, the viability, T/C [20] was 120% and the viability, T/C [21] was 104%. For the same compound, the viability, T/C [22] was 119%, the viability, T/C [23] was 113% and the viability, T/C [24] was 70.7%. For the same compound, the viability, T/C [25] was 102%, the viability, T/C [26] was 99% and the viability, T/C [27] was 110%. For the same compound, the viability, T/C [28] was 89.2%, the viability, T/C [29] was 96.6% and the viability, T/C [30] was 63.9%. The viability, T/C [31] was 73.7%, the viability, T/C [32] was 81.2% and the viability, T/C [33] was 88.4%. For the same compound, the viability, T/C [34] was 94.4%, the viability, T/C [35] was 78.5% and the viability, T/C [36] was 57.2%.

In the case of `O=c1[nH]cc(F)c(=O)[nH]1` + Cc1cccc(N(C)C(=O)C2C(O)CCN2c2nc(C)cc(C(F)(F)F)c2C#N)c1, the IC50 (second compound 0.0316 µM) is reported as > 10 µM, the IC50 (second compound 0.1 µM) is reported as > 10 µM and the IC50 (second compound 0.316 µM) is reported as > 10 µM. For the same compound, the IC50 (second compound 1 µM) was > 10 µM, the IC50 (second compound 3.16 µM) was > 10 µM and the IC50 (second compound 10 µM) was > 10 µM. For the same compound, the viability, T/C [1] was 96%, the viability, T/C [2] was 85.2% and the viability, T/C [3] was 81.1%. The viability, T/C [4] was 94%, the viability, T/C [5] was 63.6% and the viability, T/C [6] was 61%. For the same compound, the viability, T/C [7] was 102%, the viability, T/C [8] was 84.3% and the viability, T/C [9] was 75.9%. The viability, T/C [10] was 54.4%, the viability, T/C [11] was 63.7% and the viability, T/C [12] was 65.1%. It also gave a viability, T/C [13] of 109%, a viability, T/C [14] of 99.3% and a viability, T/C [15] of 73.6%. For the same compound, the viability, T/C [16] was 71.3%, the viability, T/C [17] was 79.1% and the viability, T/C [18] was 77.7%. The viability, T/C [19] was 93.4%, the viability, T/C [20] was 93.2% and the viability, T/C [21] was 74.3%. It also gave a viability, T/C [22] of 72%, a viability, T/C [23] of 71.8% and a viability, T/C [24] of 73.1%. The viability, T/C [25] was 80.8%, the viability, T/C [26] was 87.6% and the viability, T/C [27] was 80.3%. For the same compound, the viability, T/C [28] was 88.9%, the viability, T/C [29] was 83% and the viability, T/C [30] was 65.9%. It also gave a viability, T/C [31] of 71%, a viability, T/C [32] of 79.9% and a viability, T/C [33] of 83.3%. The viability, T/C [34] was 64.1%, the viability, T/C [35] was 70.3% and the viability, T/C [36] was 65%.
